Experimental data: patent US7442763B2, “Compositions for treating abnormalities in glomerular filtration, patent ductus arteriosus and osteoporosis” (Hopital Sainte-Justine, priority 1999, dated 2008)
Values belong to the molecule of their own block, whether it stands above or below them. Square brackets hold non-standard residues; d marks the D form. Ends that are not written are not given here. Bip = N[C@@H](Cc1ccc(-c2ccccc2)cc1)C(=O)O; Dip = N[C@H](C(=O)O)C(c1ccccc1)c1ccccc1; hPhe = N[C@@H](CCc1ccccc1)C(=O)O

How the values were obtained:
saphenous vein of piglet = assay: PGE2-induced dilation of saphenous vein rings, organ bath assay; parameters: species or system Yorkshire piglets; details: 1 μM peptides, 1 μM PGE2; rings pre-constricted with U46619; average of 2-8 experiments
Protocol: Animals. Yorkshire piglets (2-4 days old) were used in this study, according to a protocol approved by the Animal Care Committee of the Research Centre of Ste-Justine Hospital. Briefly, animals were anesthetized with 1.5% halothane and the lower external saphenous veins removed and placed in cold Krebs buffer (pH 7.4) of the following composition (mM): NaCl 120, KCl 4.5, CaCl2 2.5, MgSO4 1.0, NaHCO3 27, KH2PO4 1.0, glucose 10, to which 1.5 U/ml heparin was added.
Organ bath assay. The saphenous veins were cleaned of extraneous tissue and cut into 4 mm rings that were placed in individual jacketed organ baths (15 ml; Radnoti Glass, Monrovia, Calif.) containing Krebs buffer and maintained at 37° C. The solution was bubbled with a mixture of 95% O2-5% CO2. In each experiment, 8 rings were used (4 from each saphenous vein) and were equilibrated for 60 min under 2.0 gr passive tension, with frequent washing and tension adjustment. Tension was measured by force-displacement transducers and was recorded on a computerized data acquisition system using the Work Bench software (both from Kent Scientific, Litchfield, Conn.).
Experimental protocol. In a first set of experiments, the relative distribution of dilatory EP receptor subtypes was ascertained using a combination of EP receptor agonists and antagonists. The vasodilatory response of the lower external saphenous veins to PGE2 appears to result from the stimulation of 30% EP2 and 70% EP4. Tissues were initially challenged with 2×10^−7 U46619 which induced a 1.5 to 2.0 gr increase in tension. […] When the response to U46619 reached a steady state, agents were added. When no response to the agents were observed, a period of 10 minutes was allowed to insure proper distribution of the agents in the tissue. Dose-response curves to PGE2 (10^−10−10^−6 M) were then obtained in the presence of absence of each of the tested drugs.
The results are average of 2-8 experiments. The results are tabulated as percent reversal of 1 μM PGE2-induced […] in the presence of 1 μM peptides. The peptides shown here contain productive and effective substitutions in the parent peptide PHG 213 (SEQ ID NO:1)

EP4 receptor [1] = assay: Basal and PGE2-stimulated cAMP levels in EP4/293 cells; type: cell-based, Human; details: forskolin 100 μM added for 15 min, 100 μM IBMX
Source text: (§1) Data are averages of four replicates.

EP4 receptor [2] = biological target: EP4 receptor (Homo sapiens, UniProt P35408, P4S); assay: as above; type: cell-based
Source text: as §1

normal rats = assay: Glomerular filtration rate and urinary volume in normal rats; type: in vivo, Sprague-Dawley adult rats; details: i.v. infusion 6 μmol/Kg/h
Protocol: (§2) Method: Sprague-Dawley adult rats (˜250 g) were anesthetized with 50 mg/kg pentobarbitone. Left jugular vein (for infusion) and left carotid artery (for measuring blood pressure) were catheterized and another catheter was placed at the tip of the bladder for collecting urine. Infusion of [^3H]-inulin in saline (2 μCi/Kg/h) was started and continued for 2 h to stabilize the system. Urine collection was exactly for 20 min and at 10 min mark, 0.1 ml of blood was withdrawn into heparinized tubes. Blood was centrifuged and radioactivity in plasma was counted. After 10 min and 30 min (30 min and 60 min since the start of the previous urine collection), the process was repeated. The antagonist, PHG 213, was infused in saline i.v. at 6 μmol/Kg/h for one hour before the start of first urine collection. Urinary volume (UV) is calculated and expressed as μl of urine/h corrected for the weight of the animal. GFR was calculated as the ratio of urinary […] corrected for the volume of the urine and the weight of the animal.

[3] = tested on: human fetal spleen cells in coculture with fixed SaOS-2 cells; assay: Osteoclastogenesis (TRAP+ cells) in coculture of human fetal spleen cells and fixed SaOS-2 cells; type: cell-based; details: PHG213 100 μM, three days; n=10
Protocol: Method: SaOs-2 cells (immortalized cell line of human osteoblasts) were grown for four days in 24-well plates in alpha-MEM medium containing 10% fetal calf serum , vitamin D3 (10^−7). Confluent SaOs-2 cells were fixed in 1% paraformaldehyde M) and dexamethasone (10^−8 M in phosphate-buffered sline (PBS) for 8 min. The cells were rinsed with PBS 4 times and alpha-MEM containing 10% fetal calf serum and vitamin D3 (10^−7 M) was added.
Two days before, spleens from human abortuses were cut into small pieces and triturated several times release the cells. The spleen cells were cultured in alpha-MEM containing 10% fetal calf serum for 2 days. Spleen cells were trypsinized, rinsed once in PBS and counted using a coulter counter. An aliquot of spleen cells (10^5 cells/well) were placed over the monolayer of fixed SaOs-2 cells for 2 h, after which PHG213 (100 μM) was added. Three days later, the cells were fixed in 4% paraformaldehyde in PBS, rinsed with water and tartarat-resistant […] (TRAP) was stained using a commercial kit (Sigma, St. Louis, Mo.). TRAP-positive cells were viewed under a microscope and counted.

[4] = tested on: ductus arteriosus of fetal sheep; assay: Ductus arteriosus diameter in fetal sheep by Doppler echocardiography; type: in vivo; details: 2 mg bolus followed by 1 mg/Kg infusion over 15 min
Protocol: Pregnant ewes (129-140 days of gestation) was anesthetized with ketamine (30 mg/Kg i.v.), a caesarian section was performed and the fetus exteriorized. To mimic fetal respiratory conditions, the head of the fetus was submerged in a glove filled with saline. Femoral and jugular veins were catheterized for systemic blood pressure measurements and drug infusions respectively. Ducuts arteriosus (DA) diameter was measured using Doppler echocardiography as described before (Teyssier, G. et al. 1989. J. Cardiovascular Technol. 8: 259-266). Echocardiographic measurements were performed with an Acuson 128 XP/10C real time ultrasound imaging system using 7.5 or 5-MHz transducers duplexed with a range-gated Doppler. Doppler signals were filtered by a 100-Hz high-pass filter. The DA was visualized through a left second intercostal parasternal approach. After the drugs were injected, measurements of DA diameter were repeated 3 times at 5 min intervals for the next 20-25 min.
DA was unchanged for 40 min during the stabilization period. […] PHG213, a peptide antagonist of EP4 receptor, blocked the dilatory action of the receptor which is responsible for maintaining the ductus open in the fetus.

EP4 receptor [5] = assay: Ocular perfusion pressure in porcine eye model (ex vivo vasomotricity of choroid); parameters: species or system newborn pig; details: PHG213 infused at 100 μM after U46619 1 μM and PGE2 1 μM
Source text: In order to test the efficacy of PHG213 (SEQ ID NO: 1) on EP4 receptor function, an ex vivo assay of vasomotricity of porcine choroid was used. The dilatory response to PGE2 in this vascular bed was previously shoen to be mediated by EP4 receptor (Abran, D. et al. 1997. Am. J. Physiol. 272: R995-1001).
Method: The method as described in detail by Abran et al. (1997) was followed exactly. A vortex vein from the eye of a newborn pig was catheterized with a 27-gauge needle and perfused with Kreb's solution until perfusion pressure was stable. The vasculature was first constricted with a thromboxane mimetic, U46619 (1 μM), and then PGE2 was infused at 1 μM. Once the reversal of constriction reached a plateau, then PHG213 was infused at 100 μM and the perfusion pressure was recorded.
Positive values of perfusion pressure indicate constriction whereas negative values indicate dilation of the vasculature. PGE2 reversed the constriction produced by U46619. […] Since it is known that the dilatory effects of PGE2 are predominantly mediated by EP4 receptor in choroid of the newborn pig, PHG 213 antagonized the actions of EP4 receptor and blocked the dilation produced by this receptor.

diabetic rats = assay: Glomerular filtration rate and urinary volume in streptozotocin-induced diabetic rats; type: in vivo, Sprague-Dawley adult rats; details: systemic infusion
Protocol: as §2
Method: Sprague-Dawley adult rats (˜250 g) were injected i.p. with streptozotocin (45-50 mg/Kg) and two days later, the urine was tested for glucose and proteinuria. Two weeks later, the rats that tested positive for both markers were chosen to test the effects of PHG 213 (SEQ ID NO:1) on GFR and UV using a method described above.

EP4 receptor (Homo sapiens, UniProt P35408, P4S), sequence (P35408 whole entry P4S): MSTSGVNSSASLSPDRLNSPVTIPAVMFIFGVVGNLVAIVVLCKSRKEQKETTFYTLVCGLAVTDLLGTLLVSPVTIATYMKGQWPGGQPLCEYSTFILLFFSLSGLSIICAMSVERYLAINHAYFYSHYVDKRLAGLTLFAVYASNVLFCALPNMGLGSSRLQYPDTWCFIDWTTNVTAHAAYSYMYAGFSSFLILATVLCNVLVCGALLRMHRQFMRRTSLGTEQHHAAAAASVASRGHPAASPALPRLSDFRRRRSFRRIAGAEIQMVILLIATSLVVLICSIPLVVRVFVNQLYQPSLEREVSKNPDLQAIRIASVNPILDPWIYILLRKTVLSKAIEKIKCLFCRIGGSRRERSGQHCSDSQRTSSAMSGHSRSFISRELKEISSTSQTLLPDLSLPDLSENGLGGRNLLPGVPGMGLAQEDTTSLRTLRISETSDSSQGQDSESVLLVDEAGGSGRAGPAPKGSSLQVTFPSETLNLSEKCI

Molecule: 1 (IFTSYECL; Peptide inhibitor of prostaglandin E2 receptor subtype EP4) [compound 1]
% blockade of PGE2 induced vasodilation (saphenous vein of piglet): 50.0%

Molecule: 2 (IFASYECL; Peptide inhibitor of prostaglandin E2 receptor subtype EP4) [compound 2]
% blockade of PGE2 induced vasodilation (saphenous vein of piglet): 35.0%

Molecule: 3 (IFTSAECL; Peptide inhibitor of prostaglandin E2 receptor subtype EP4) [compound 3]
% blockade of PGE2 induced vasodilation (saphenous vein of piglet): 20.0%

Molecule: 4 (IFTSYEAL; Peptide inhibitor of prostaglandin E2 receptor subtype EP4) [compound 4]
% blockade of PGE2 induced vasodilation (saphenous vein of piglet): 60.0%

Molecule: 5 (ILASYECL; Peptide inhibitor of prostaglandin E2 receptor subtype EP4) [compound 5]
% blockade of PGE2 induced vasodilation (saphenous vein of piglet): 60.0%

Molecule: 6 (IFTSYDCL; Peptide inhibitor of prostaglandin E2 receptor subtype EP4) [compound 6]
% blockade of PGE2 induced vasodilation (saphenous vein of piglet): 30.0%

Molecule: 7 ([Bip]TSYEAL) [compound 7]
% blockade of PGE2 induced vasodilation (saphenous vein of piglet): 65.5%

Molecule: 8 ([Dip]TSYEAL) [compound 8]
% blockade of PGE2 induced vasodilation (saphenous vein of piglet): 64.5%

Molecule: 9 ([hPhe]TSYEAL) [compound 9]
% blockade of PGE2 induced vasodilation (saphenous vein of piglet): 34.0%

Molecule: C=C[C@@]1(C)CC(=O)[C@]2(O)[C@@]3(C)[C@@H](O)CCC(C)(C)[C@@H]3[C@H](O)[C@H](OC(C)=O)[C@@]2(C)O1 [FSK, forskolin, reference compound]
CAMP (pmol/ml/10^5 cells) (EP4 receptor [1]): >270 pmol/ml/10^5 cells

CAMP (pmol/ml/10^5 cells) (EP4 receptor [2]; PGE2 1 μM added for 15 min, 100 μM IBMX): >270 pmol/ml/10^5 cells
Molecule: CCCCC[C@H](O)/C=C/[C@H]1[C@H](O)CC(=O)[C@@H]1C/C=C\CCCC(=O)O [PGE2, Prostaglandin E2, reference compound]

% inhibition of basal cAMP levels (EP4 receptor [2]; PHG213 100 μM with 100 μM IBMX for 1 h): 60.7%
CAMP (pmol/ml/10^5 cells) (EP4 receptor [2]; basal, PHG213 100 μM with 100 μM IBMX for 1 h, vehicle 69.9): 27.5 pmol/ml/10^5 cells
Molecule: PHG213: peptide antagonist of EP4 receptor, parent peptide, D-amino acids (IFTSYECL; also: D-amino acids, places not given here)
Glomerular filtration rate (GFR) increase (normal rats): 157%
Mean blood pressure (normal rats): not significantly altered
Urinary flow rate (UV) increase (normal rats): 2.3 fold
Reduction of number of TRAP-positive cells (osteoclasts) [3]: half
Ductus arteriosus (DA) diameter [4]: started to constrict and continued for another 15 min and was irreversible
Block of the dilatory effect of PGE2 on ocular perfusion pressure (EP4 receptor [5]): blocked this dilatory effect of PGE2 completely
GFR (diabetic rats): increased
Mean blood pressure (diabetic rats): not significantly altered
UV (diabetic rats): increased
